From patent publication US8026282B2, “Phenoxyalkylcarboxylic acid derivatives in the treatment of irritable bowel syndrome” (Medicinova, Inc., priority 2004, dated 2011)

Test system: rat bladder
Assay: Ovalbumin-sensitized rat model of inflammation-induced bladder hyperactivity (cystometry)
Format: in vivo, Sprague-Dawley rats
Conditions: for NVC/minute: 60 minutes prior
Experimental: Sprague-Dawley rats (n=50; […]) were utilized for this study. The animals were divided into 5 groups (n=10). The first group served as the control and the second group was sensitized with ovalbumin (OA). The third, fourth, and fifth groups were also sensitized as described but subjected to oral gavaging with Compound 1 prior to acute ovalbumin challenge.
Sensitization of the animals was accomplished with an intraperitoneal injection of a mixture of 1 mg OA and 100 mg aluminum hydroxide suspended in 1 mL of saline. Fourteen days later, these sensitized rats were anaesthetized with a subcutaneous injection of urethane (1.2 g/kg) for intravesical OA (10 mg/mL) administration and evaluation of bladder hyperactivity. The animals in group 1 received saline (control), group 2 animals received about 2 mL of OA (10 mg/mL OA in sterile saline) and animal groups 3-5 animals received oral 1 (10, 30, 50 mg/kg in gum acacia suspension) 60 minutes prior to acute OA challenge (2 mL of 10 mg/mL OA).
All animals were subjected to evaluation of bladder hyperactivity. Briefly, a 1 cm incision was made along the centerline of the lower ventral abdomen. The bladder was exteriorized, and catheterized by means of a polyethylene tube (PE 50, Clay Adams) inserted into the bladder dome and sutured in place using a 2-0 braided silk suture. The bladder was returned to the abdomen, with the catheter line escaping through the incision. The catheter was then connected to a pressure transducer (UFI, Morro Bay, Calif.) and in turn, connected to an infusion pump (Harvard Apparatus, MA). During the continuous filling bladder cystometry, the pressure was recorded with the transducer using the program LabVIEW (National Instruments, TX).
For cystometry (See, Chuang Y C, Chancellor M B, Seki S, Yoshimura N, Tyagi P, Huang L, Lavelle J P, De Groat W C and Fraser M O: Intravesical protamine sulfate and potassium chloride as a model for bladder hyperactivity. Urology (2003) 61:664-70), the bladder was first infused with warm 0.9% saline (37° C.) at 40 μL/min (2.4 mL/hr) and at least 20 minutes of stable voiding cycles were recorded during infusion. This process was followed by intravesical infusion of OA (10 mg/mL) and bladder contractions were recorded. Frequency of contractions (voids), inter-contractile interval (ICI), and non-voiding contractions (NVC) were calculated from these recordings.

SMILES: CCCc1c(SCCCOc2ccc(C(C)=O)c(OCCCC(=O)O)c2CCC)ccc(C(C)=O)c1O [Compound 1, 4-[6-acetyl-3-[3-(4-acetyl-3-hydroxy-2-propylphenylthio)propoxy]-2-propylphenoxy]butyric acid]
- NVC/minute (Group 3: OA (10 mg/mL) infusion after oral 10 mg/kg, n = 10, NS compared to Group 2 (OA alone 0.9400 ± 0.2473)): 0.4700 ± 0.1221 NVC/minute
- NVC/minute (Group 4: OA (10 mg/mL) infusion after oral 30 mg/kg, n = 9, P < 0.05 compared to Group 2): 0.3444 ± 0.06894 NVC/minute
- NVC/minute (Group 5: OA (10 mg/mL) infusion after oral 50 mg/kg, n = 9, P < 0.05 compared to Group 2): 0.1778 ± 0.08296 NVC/minute
- voiding frequency (control (group 1) versus treatment groups (2-5)): No significant differences
- OA-induced changes in NVC and ICI (pre-treatment, oral 10, 30, 50 mg/kg): dose-dependent inhibition
- protection against OA-induced changes (increase in NVC, decrease in ICI) (pre-treatment, preferably at 30 and 50 mg/kg): significant protection
